Measurements published in publication PMC11200585, “Prospects for Prostate Cancer Chemotherapy: Cytotoxic Evaluation and Mechanistic Insights of Quinolinequinones with ADME/PK Profile” (Biomedicines, 2024).

Legend:
Type in all cases: cell-based, human
DU-145 = assay: NCI-60 one-dose screen (prostate cancer); settings: 10 µM single dose, 48 h
PC-3 = assay: NCI-60 one-dose screen (prostate cancer); settings: 10 µM single dose
CCRF-CEM = assay: NCI-60 five-dose assay (leukemia); settings: 48 h, SRB
K-562 = assay: NCI-60 five-dose assay (leukemia); settings: SRB
MOLT-4 = assay: NCI-60 five-dose assay (leukemia); settings: 48 h, SRB
RPMI-8226 = assay: NCI-60 five-dose assay (leukemia); settings: 48 h, SRB
SR = assay: NCI-60 five-dose assay (leukemia); settings: 48 h, SRB
A549/ATCC = assay: NCI-60 five-dose assay (non-small cell lung cancer); settings: 48 h, SRB
HOP-62 = assay: as above; settings: 48 h, SRB
HOP-92 = assay: as above; settings: 48 h, SRB
NCI-H226 = assay: as above; settings: 48 h, SRB
NCI-H460 = assay: as above; settings: 48 h, SRB
HCT-116 = assay: NCI-60 five-dose assay (colon cancer); settings: 48 h, SRB
HCT-15 = assay: NCI-60 five-dose assay (colon cancer); settings: 48 h, SRB
HT29 = assay: NCI-60 five-dose assay (colon cancer); settings: SRB
KM12 = assay: NCI-60 five-dose assay (colon cancer); settings: 48 h, SRB
SW-620 = assay: NCI-60 five-dose assay (colon cancer); settings: 48 h, SRB
SF-268 = assay: NCI-60 five-dose assay (CNS cancer); settings: 48 h, SRB
SF-295 = assay: NCI-60 five-dose assay (CNS cancer); settings: 48 h, SRB
SNB-19 = assay: NCI-60 five-dose assay (CNS cancer); settings: 48 h, SRB
LOX IMVI = assay: NCI-60 five-dose assay (melanoma); settings: 48 h, SRB
MALME-3M = assay: NCI-60 five-dose assay (melanoma); settings: 48 h, SRB
SK-MEL-2 = assay: NCI-60 five-dose assay (melanoma); settings: 48 h, SRB
SK-MEL-5 = assay: NCI-60 five-dose assay (melanoma); settings: 48 h, SRB
IGROV1 = assay: NCI-60 five-dose assay (ovarian cancer); settings: SRB
SK-OV-3 = assay: NCI-60 five-dose assay (ovarian cancer); settings: 48 h, SRB
A498 = assay: NCI-60 five-dose assay (renal cancer); settings: 48 h, SRB
ACHN = assay: NCI-60 five-dose assay (renal cancer); settings: 48 h, SRB
CAKI-1 = assay: NCI-60 five-dose assay (renal cancer); settings: 48 h, SRB
MDA-MB-231/ATCC = assay: NCI-60 five-dose assay (breast cancer); settings: 48 h, SRB
HS 578T = assay: NCI-60 five-dose assay (breast cancer); settings: 48 h, SRB
T-47D = assay: NCI-60 five-dose assay (breast cancer); settings: 48 h, SRB
[1] = Homo sapiens, read-out: LC50 (the source's name)

CCOc1ccc(NC2=C(Cl)C(=O)c3nc(C)ccc3C2=O)cc1 [AQQ3]
GP (growth percentage) (DU-145): −92.73%
GP (growth percentage) (PC-3; 48 h): 10.40%
inhibition at 10 µM (PC-3; Homo sapiens): 89.6%
TGI (CCRF-CEM): >100 µM
GI50 (CCRF-CEM; Homo sapiens): 2.11 µM
LC50 (concentration killing 50% of cells) (CCRF-CEM; Homo sapiens): > 100 µM
TGI (K-562; 48 h): >100 µM
GI50 (K-562; Homo sapiens, K562, 48 h): 1.17 µM
LC50 (K-562; Homo sapiens, K562, 48 h): > 100 µM
TGI (MOLT-4): >100 µM
GI50 (MOLT-4; Homo sapiens): 2.49 µM
LC50 (MOLT-4; Homo sapiens): > 100 µM
TGI (RPMI-8226): 5.33 µM
GI50 (RPMI-8226; Homo sapiens): 1.67 µM
CC50 (RPMI-8226; [1]): > 100 µM
TGI (SR): >100 µM
GI50 (SR; Homo sapiens): 1.09 µM
CC50 (SR; [1]): > 100 µM
TGI (A549/ATCC): 4.64 µM
GI50 (A549/ATCC; Homo sapiens): 2.09 µM
CC50 (A549/ATCC; [1]): 17.5 µM
TGI (HOP-62): 3.23 µM
GI50 (HOP-62; Homo sapiens): 1.74 µM
LC50 (concentration killing 50% of cells) (HOP-62; Homo sapiens): 6.01 µM
TGI (HOP-92): 3.51 µM
GI50 (HOP-92; Homo sapiens): 2.01 µM
LC50 (50% lethal concentration) (HOP-92; Homo sapiens): 6.12 µM
TGI (NCI-H226): 4.52 µM
GI50 (NCI-H226; Homo sapiens): 1.84 µM
LC50 (NCI-H226; Homo sapiens): > 100 µM
TGI (NCI-H460): 10.4 µM
GI50 (NCI-H460; Homo sapiens): 3.08 µM
CC50 (NCI-H460; [1]): 49.7 µM
TGI (HCT-116): 2.79 µM
GI50 (HCT-116; Homo sapiens): 1.32 µM
LC50 (HCT-116; Homo sapiens): 5.92 µM
TGI (HCT-15): 2.94 µM
GI50 (HCT-15; Homo sapiens): 1.3 µM
CC50 (HCT-15; [1]): 6.66 µM
TGI (HT29; 48 h): 7.08 µM
GI50 (HT29; Homo sapiens, HT-29, 48 h): 2.87 µM
LC50 (concentration killing 50% of cells) (HT29; Homo sapiens, HT-29, 48 h): 62.5 µM
TGI (KM12): 3.07 µM
GI50 (KM12; Homo sapiens): 1.44 µM
CC50 (KM12; [1]): 6.51 µM
TGI (SW-620): 3.51 µM
GI50 (SW-620; Homo sapiens): 1.83 µM
LC50 (SW-620; Homo sapiens): 6.73 µM
TGI (SF-268): 3.09 µM
GI50 (SF-268; Homo sapiens): 1.55 µM
LC50 (concentration killing 50% of cells) (SF-268; Homo sapiens): 6.14 µM
TGI (SF-295): 3.43 µM
GI50 (SF-295; Homo sapiens): 1.86 µM
LC50 (50% lethal concentration) (SF-295; Homo sapiens): 6.3 µM
TGI (SNB-19): 3.16 µM
GI50 (SNB-19; Homo sapiens): 1.68 µM
CC50 (SNB-19; [1]): 5.94 µM
TGI (LOX IMVI): 2.33 µM
GI50 (LOX IMVI; Homo sapiens): 1.06 µM
LC50 (concentration killing 50% of cells) (LOX IMVI; Homo sapiens): 5.14 µM
TGI (MALME-3M): 3.16 µM
GI50 (MALME-3M; Homo sapiens): 1.65 µM
LC50 (MALME-3M; Homo sapiens): 6.02 µM
TGI (SK-MEL-2): 3.03 µM
GI50 (SK-MEL-2; Homo sapiens): 1.63 µM
CC50 (SK-MEL-2; [1]): 5.64 µM
TGI (SK-MEL-5): 3.11 µM
GI50 (SK-MEL-5; Homo sapiens): 1.72 µM
CC50 (SK-MEL-5; [1]): 5.62 µM
TGI (IGROV1; 48 h): 2.76 µM
GI50 (IGROV1; Homo sapiens, IGROV-1, 48 h): 1.36 µM
LC50 (IGROV1; Homo sapiens, IGROV-1, 48 h): 5.61 µM
TGI (SK-OV-3): 30.1 µM
GI50 (SK-OV-3; Homo sapiens): 11 µM
LC50 (50% net cell kill) (SK-OV-3; Homo sapiens): 82.3 µM
TGI (A498): 5.52 µM
GI50 (A498; Homo sapiens): 1.56 µM
LC50 (A498; Homo sapiens): 24.4 µM
TGI (ACHN): 2.92 µM
GI50 (ACHN; Homo sapiens): 1.57 µM
LC50 (ACHN; Homo sapiens): 5.45 µM
TGI (CAKI-1): 2.97 µM
GI50 (CAKI-1; Homo sapiens): 1.6 µM
LC50 (lethal concentration, 50% net cell kill) (CAKI-1; Homo sapiens): 5.51 µM
TGI (MDA-MB-231/ATCC): 2.50 µM
GI50 (MDA-MB-231/ATCC; Homo sapiens): 1.17 µM
LC50 (concentration killing 50% of cells) (MDA-MB-231/ATCC; Homo sapiens): 5.34 µM
TGI (HS 578T): 5.82 µM
GI50 (HS 578T; Homo sapiens): 2.22 µM
CC50 (HS 578T; [1]): > 100 µM
TGI (T-47D): 3.91 µM
GI50 (T-47D; Homo sapiens, T47D): 1.01 µM
CC50 (T-47D; Homo sapiens, T47D, read-out: LC50 (the source's name)): > 100 µM
